{"source": "paper PMC11725774", "about": "(Cancer Research Communications, 2025)", "key": {"SYK": {"target": "T1, SYK (Homo sapiens, UniProt P43405)", "T1 construct": "purchased Thermo Fisher Scientific or Reaction Biology, Inc. (screening service)", "assay": "Broad kinase inhibition screen, recombinant kinase", "type": "biochemical", "details": "broad kinase inhibition screens", "text": "(§1) Data from these screens are available on request."}, "JAK2": {"target": "T2, JAK2 (Homo sapiens, UniProt O60674)", "T2 construct": "purchased Thermo Fisher Scientific or Reaction Biology, Inc. (screening service)", "assay": "Broad kinase inhibition screen, recombinant kinase", "type": "biochemical", "details": "broad kinase inhibition screens", "text": "as §1"}, "RSK-2": {"target": "T3, RSK-2 (Homo sapiens, UniProt P51812)", "T3 construct": "purchased Thermo Fisher Scientific or Reaction Biology, Inc. (screening service)", "assay": "Broad kinase inhibition screen, recombinant kinase", "type": "biochemical", "details": "broad kinase inhibition screens", "text": "as §1"}, "JAK1": {"target": "T4, JAK1 (Homo sapiens, UniProt P23458)", "T4 construct": "purchased Thermo Fisher Scientific or Reaction Biology, Inc. (screening service)", "assay": "Broad kinase inhibition screen, recombinant kinase", "type": "biochemical", "details": "broad kinase inhibition screens", "text": "as §1"}, "TAK1": {"target": "T5, TAK1 (Homo sapiens, UniProt O43318)", "T5 construct": "purchased Thermo Fisher Scientific or Reaction Biology, Inc. (screening service)", "T5 sequence (O43318 1-303 limits assumed)": "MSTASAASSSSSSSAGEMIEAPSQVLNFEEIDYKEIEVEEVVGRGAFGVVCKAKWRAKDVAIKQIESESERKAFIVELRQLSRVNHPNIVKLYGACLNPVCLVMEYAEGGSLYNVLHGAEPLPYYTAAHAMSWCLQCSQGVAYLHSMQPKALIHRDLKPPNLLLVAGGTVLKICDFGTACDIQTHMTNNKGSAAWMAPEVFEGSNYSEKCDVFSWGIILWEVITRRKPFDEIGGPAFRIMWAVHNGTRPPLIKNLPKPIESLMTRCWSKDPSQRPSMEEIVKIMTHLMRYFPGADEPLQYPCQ", "T5 sequence (Q15750 437-504 partner limits assumed)": "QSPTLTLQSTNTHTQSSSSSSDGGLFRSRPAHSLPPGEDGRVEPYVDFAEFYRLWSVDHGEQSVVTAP", "assay": "Broad kinase inhibition screen, recombinant kinase", "type": "biochemical", "details": "broad kinase inhibition screens", "text": "as §1"}, "MOLM-14 cells (parental)": {"test_system": "MOLM-14 cells (parental)", "assay": "Growth inhibition of AML cell line", "type": "cell-based, human", "details": "Homo sapiens, MOLM-14", "procedure": "(§2) MV-4-11 cells expressing NRAS^G12D were prepared by transduction with a lentiviral vector encoding the NRAS^G12D mutation. Assays using a panel of parental Ba/F3 into which an additional copy of either WT or a mutant form of FLT3 was introduced were performed at Kyinno Biotechnology Co., Ltd. All cell lines were short tandem repeat authenticated at ATCC or at DSMZ when originally obtained, and no further authentication was done after receipt of the cells in the laboratory.\n(§3) Assays using Ba/F3 cells expressing WT and mutant forms of FLT3 were performed by Kyinno Biotechnology. The cells were cultured in the medium recommended by the source for each cell line. Growth inhibition assays were performed using either Cell Titer 96 Aqueous One Solution Cell Proliferation assay (Promega, # G3581) or CCK8 (Dojindo, # CK-04). […] IC50 values were determined from growth inhibition curves fitted using GraphPad Prism and a nonlinear regression model with sigmoidal dose response. Unless otherwise indicated, data are presented as mean ± SEM."}, "[1]": {"assay": "Metabolism by liver microsomes", "type": "in vitro ADME, human"}, "CYP3A": {"test_system": "CYP3A", "assay": "CYP inhibition", "type": "in vitro ADME", "details": "human"}, "[2]": {"test_system": "MV-4-11 cells inoculated orthotopically", "assay": "Orthotopic AML xenograft survival", "type": "in vivo, NOD/SCID mice", "details": "oral TUS 30 mg/kg every day; vehicle 42 days", "procedure": "(§4) For subcutaneous inoculation, MV-4-11 and MOLM-14 FLT3-ITD/F691L cells were mixed with BD Matrigel Matrix (1:0.5 ratio), and 2 to 5 × 10^6 cells in 0.15 mL were inoculated subcutaneously in NOD/SCID mice. Tumor size was assessed using a Vernier caliper 2 to 3 times weekly and volume was calculated using the formula for an ellipsoid sphere. For orthotopic inoculation, MOLM-14-Luc/GFP cells (2 × 10^6 cells in 0.03 mL PBS) or MV-4-11-Luc and MOLM-13-Luc cells (1 × 10^6 cells in 50 μL Hank’s balanced salt solution) were injected into the left tibia of NOD/SCID mice. Tumor growth was monitored weekly by bioluminescence imaging using an IVIS Lumina Series III In vivo imaging system (PerkinElmer Inc.). The Institutional Animal Care and Use Committee of the Hanmi Research Center approved the animal study protocol.\n(§5) For both subcutaneous and bone marrow orthotopic models, after confirming tumor formation by palpation or bioluminescence imaging, mice were randomly assigned into experimental groups.\n(§6) A P value less than 0.05 was considered statistically significant."}, "[3]": {"test_system": "MOLM-14 cells inoculated orthotopically", "assay": "Orthotopic AML xenograft survival", "type": "in vivo, NOD/SCID mice", "details": "oral TUS 30 mg/kg every day; vehicle 17 days", "procedure": "as §4, §5, §6"}, "[4]": {"test_system": "MOLM-13 cells inoculated orthotopically", "assay": "Orthotopic AML xenograft survival", "type": "in vivo, NOD/SCID mice", "details": "oral TUS 30 mg/kg every day; vehicle 37 days", "procedure": "as §4, §5, §6"}, "Ba/F3 cells FLT3 D835Y": {"test_system": "Ba/F3 cells FLT3 D835Y", "assay": "Growth inhibition of Ba/F3 cells", "type": "cell-based, murine", "details": "Mus musculus", "procedure": "as §2, §3"}, "Ba/F3 cells FLT3 ITD": {"test_system": "Ba/F3 cells FLT3 ITD", "assay": "Growth inhibition of Ba/F3 cells", "type": "cell-based, murine", "details": "Mus musculus", "procedure": "as §2, §3"}, "[5]": {"test_system": "Ba/F3 cells FLT3 ITD/D835Y", "assay": "Growth inhibition of Ba/F3 cells", "type": "cell-based, murine", "details": "Mus musculus, BaF3", "procedure": "as §2, §3"}, "[6]": {"test_system": "Ba/F3 cells FLT3 ITD/F691L", "assay": "Growth inhibition of Ba/F3 cells", "type": "cell-based, murine", "details": "Mus musculus, BaF3", "procedure": "as §2, §3"}, "Ba/F3 cells FLT3 WT": {"test_system": "Ba/F3 cells FLT3 WT", "assay": "Growth inhibition of Ba/F3 cells", "type": "cell-based, murine", "procedure": "as §2, §3"}, "MOLM-13 cells": {"test_system": "MOLM-13 cells", "assay": "Growth inhibition of AML cell line", "type": "cell-based", "details": "Homo sapiens, mean ± SD", "procedure": "as §2, §3"}, "Pharmacokinetics in dog": {"assay": "Pharmacokinetics in dog", "type": "in vivo"}, "TUS/R MOLM-14 cells": {"test_system": "TUS/R MOLM-14 cells", "assay": "Growth inhibition of TUS-resistant sublines versus parental", "type": "cell-based, human", "details": "Homo sapiens, MOLM-14; read-out: IC50, cells with acquired resistance"}}, "note": "Read-outs that look alike come from different tables or passages of the source."}
{"smiles": "Cc1ccc2c(-c3nc(Nc4cc(CN5C[C@@H](C)N[C@@H](C)C5)cc(C5CC5)c4)ncc3Cl)c[nH]c2c1", "note": "[TUS, Tuspetinib]", "values": [{"measurement": "IC50", "setting": "SYK", "value": 2.9, "unit": "nM"}, {"measurement": "IC50", "setting": "JAK2", "value": 6.3, "unit": "nM"}, {"measurement": "IC50", "setting": "RSK-2", "value": 9.7, "unit": "nM"}, {"measurement": "IC50", "setting": "JAK1", "value": 2.9, "unit": "nM"}, {"measurement": "IC50", "setting": "TAK1", "value": 7, "unit": "nM"}, {"measurement": "IC50", "setting": "MOLM-14 cells (parental); growth inhibition, three independent experiments, read-out: IC50 (nmol/L), Mean ± SEM, MOLM-14 parental", "value": "2.3 ± 0.6", "unit": "nmol/L"}, {"measurement": "GI50", "setting": "MOLM-14 cells (parental); mean ± SEM (Supplementary Table 6), read-out: GI50 (nM) Parental MOLM-14 (converted)", "value": "2.3 ± 0.6", "unit": "nM"}, {"measurement": "GI50", "setting": "MOLM-14 cells (parental); mean ± SD (Supplementary Table 4), read-out: GI50", "value": "2.9 ± 1.2", "unit": "nM"}, {"measurement": "metabolism by human liver microsomes", "setting": "[1]", "value": "metabolized by human liver microsomes"}, {"measurement": "Ki", "setting": "CYP3A", "value": "< 1000", "unit": "nM"}, {"measurement": "median survival", "setting": "[2]", "value": 147, "unit": "days"}, {"measurement": "median survival", "setting": "[3]", "value": 65, "unit": "days"}, {"measurement": "median survival", "setting": "[4]", "value": 75, "unit": "days"}, {"measurement": "GI50", "setting": "Ba/F3 cells FLT3 D835Y; BaF3, Ba/F3 FLT3 D835Y", "value": "< 9.1", "unit": "nM"}, {"measurement": "GI50", "setting": "Ba/F3 cells FLT3 D835Y; BaF3, Ba/F3 FLT3 D835Y, mean ± SD, read-out: GI50", "value": "7.3 ± 3.5", "unit": "nM"}, {"measurement": "GI50", "setting": "Ba/F3 cells FLT3 ITD; BaF3, Ba/F3 FLT3 ITD", "value": "< 9.1", "unit": "nM"}, {"measurement": "GI50", "setting": "Ba/F3 cells FLT3 ITD; BaF3, Ba/F3 FLT3 ITD, mean ± SD, read-out: GI50", "value": "2.5 ± 0.4", "unit": "nM"}, {"measurement": "GI50", "setting": "[5]", "value": 16, "unit": "nM"}, {"measurement": "GI50", "setting": "[6]", "value": 56, "unit": "nM"}, {"measurement": "GI50", "setting": "Ba/F3 cells FLT3 WT; Ba/F3 FLT3 WT", "value": "< 9.1", "unit": "nM"}, {"measurement": "GI50", "setting": "Ba/F3 cells FLT3 WT; Mus musculus, BaF3, Ba/F3 FLT3 WT, read-out: GI50", "value": 9.1, "unit": "nM"}, {"measurement": "GI50", "setting": "MOLM-13 cells", "value": "5.2 ± 0.9", "unit": "nM"}, {"measurement": "dose proportionality of AUC", "setting": "Pharmacokinetics in dog", "value": "linearly proportional to dose"}, {"measurement": "bioavailability", "setting": "Pharmacokinetics in dog; in vivo, oral", "value": 99, "unit": "%"}, {"measurement": "IC50", "setting": "TUS/R MOLM-14 cells", "value": "139 ± 38.6", "unit": "nM"}]}
